Common to all, as to assay: ≥ marks a high value that may be exact or a test limit, other limits are often not marked, values filed in µg/mL are converted to µM
Test [1] deals with Staphylococcus aureus ATCC 25923.
The subject of test [2] is Pseudomonas aeruginosa CMCCB 10104.
Test [3] relates to Candida albicans ATCC 2002.
Test [4] deals with Escherichia coli ATCC 25922.
The test system of test [5] is Staphylococcus aureus ATCC 33591.
Test [6] relates to Pseudomonas aeruginosa ATCC 27853.

The record followed here is DBAASP.

Converted amounts (≈) assume the structure as drawn. Where only a bound is given, the exact number is not on record here.

Regarding `CC[C@H](C)[C@@H]1NC(=O)[C@H](C)NC(=O)[C@@H](NC(=O)[C@H](Cc2ccccc2)NC(=O)[C@H](C)NC(=O)[C@@H](NC(=O)[C@@H]2CCCN2C(=O)[C@H](CC(C)C)NC(=O)[C@@H](NC(=O)[C@H](CC(N)=O)NC(=O)[C@H](C)NC(=O)[C@H](C)NC(=O)[C@@H](NC(=O)[C@H](CCCN=C(N)N)NC(=O)[C@@H](NC(=O)[C@@H](NC(=O)[C@H](C)NC(=O)[C@@H]2CCCN2C(=O)[C@H](CC(C)C)NC(=O)[C@@H](N)Cc2ccccc2)C(C)C)[C@@H](C)CC)C(C)C)C(C)C)[C@@H](C)O)CSSC[C@@H](C(=O)O)NC(=O)[C@H](CCCCN)NC(=O)[C@H](CCCCN)NC(=O)[C@H](CO)NC1=O` [FLPAVIRVAANVLPTAFCAISKKC], the MIC is 2.61 µM (≈ 6.59 µg/mL) in test [1], 5.21 µM (≈ 13.2 µg/mL) in test [2], 1.3 µM (≈ 3.3 µg/mL) in test [3] and 2.61 µM (≈ 6.59 µg/mL) in test [4].
With `CC[C@H](C)[C@@H]1NC(=O)[C@H](CCCCN)NC(=O)[C@@H](NC(=O)[C@H](CCCCN)NC(=O)[C@H](CC(C)C)NC(=O)[C@H](CC(N)=O)NC(=O)[C@H](CC(=O)O)NC(=O)[C@H](CC(C)C)NC(=O)[C@H](CC(C)C)NC(=O)[C@@H](NC(=O)[C@@H](NC(=O)[C@H](C)NC(=O)[C@@H](NC(=O)[C@H](CC(N)=O)NC(=O)[C@H](CCCCN)NC(=O)[C@H](C)NC(=O)[C@@H](NC(=O)[C@H](CC(N)=O)NC(=O)[C@H](CCCCN)NC(=O)[C@H](C)NC(=O)[C@@H](NC(=O)[C@H](CC(N)=O)NC(=O)[C@H](CCSC)NC(=O)[C@H](Cc2ccccc2)NC(=O)CN)[C@@H](C)O)C(C)C)C(C)C)C(C)C)[C@@H](C)O)CSSC[C@@H](C(=O)O)NC(=O)CNC(=O)CNC(=O)[C@H]([C@@H](C)O)NC1=O` [GFMNTAKNVAKNVAVTLLDNLKCKITGGC], the MIC in test [1] is 5.89 µM (≈ 17.8 µg/mL); in test [2], 5.89 µM (≈ 17.8 µg/mL); in test [3] it was 2.94 µM (≈ 8.89 µg/mL); in test [4], 2.94 µM (≈ 8.89 µg/mL).
Take `CC[C@H](C)[C@H](NC(=O)CN)C(=O)N[C@@H](CC(C)C)C(=O)NCC(=O)N[C@@H](CC(N)=O)C(=O)N[C@H](C(=O)N[C@H](C(=O)NCC(=O)N[C@@H](CCSC)C(=O)NCC(=O)N[C@@H](CCCCN)C(=O)N[C@@H](CCCCN)C(=O)N[C@H](C(=O)N[C@H](C(=O)N[C@H]1CSSC[C@@H](C(=O)O)NC(=O)[C@H](CC(C)C)NC(=O)CNC(=O)[C@H](CO)NC(=O)[C@H](CC(C)C)NC(=O)CNC1=O)C(C)C)C(C)C)C(C)C)[C@@H](C)CC` [GILGNIVGMGKKVVCGLSGLC]: the MIC in test [1] came to 5.6 µM (≈ 11.3 µg/mL); in test [2], 11.2 µM (≈ 22.6 µg/mL); in test [3] it was 3.32 µM (≈ 6.69 µg/mL); in test [4] it was 5.6 µM (≈ 11.3 µg/mL).
Regarding `CC[C@H](C)[C@H](NC(=O)CNC(=O)[C@H](CCCCN)NC(=O)CNC(=O)[C@H](C)NC(=O)[C@H](Cc1ccccc1)NC(=O)[C@H](CCCCN)NC(=O)[C@H](CO)NC(=O)[C@H](Cc1ccccc1)NC(=O)[C@H](CC(C)C)NC(=O)CN)C(=O)N[C@H](C(=O)N[C@@H](CC(N)=O)C(=O)N[C@@H](Cc1ccccc1)C(=O)N[C@@H](CC(C)C)C(=O)N[C@H](C(=O)N[C@@H](CCC(=O)O)C(=O)NCC(=O)N[C@H](C(=O)N[C@@H](CCC(=O)O)C(=O)O)C(C)C)[C@@H](C)CC)C(C)C` [GLFSKFAGKGIVNFLIEGVE], the MIC came to 7.2 µM (≈ 15.3 µg/mL) in test [1], 7.2 µM (≈ 15.3 µg/mL) in test [2], 14.3 µM (≈ 30.5 µg/mL) in test [3] and 14.3 µM (≈ 30.5 µg/mL) in test [4].
With `CC(C)C[C@H](NC(=O)CN)C(=O)N[C@@H](CC(C)C)C(=O)N[C@@H](CC(=O)O)C(=O)N[C@H](C(=O)N[C@@H](Cc1ccccc1)C(=O)N[C@@H](CCCCN)C(=O)N[C@@H](CC(N)=O)C(=O)N[C@@H](CC(C)C)C(=O)N[C@@H](C)C(=O)N[C@@H](CC(C)C)C(=O)N[C@@H](CC(N)=O)C(=O)N[C@@H](C)C(=O)N[C@@H](C)C(=O)N[C@@H](CCC(=O)O)C(=O)N[C@@H](CO)C(=O)N[C@@H](C)C(=O)NCC(=O)N[C@H](C(=O)N[C@@H](CO)C(=O)N[C@H](C(=O)N[C@@H](CC(C)C)C(=O)N[C@@H](CC(N)=O)C(=O)N[C@@H](CO)C(=O)N[C@@H](CC(C)C)C(=O)N[C@@H](CO)C(=O)N[C@H]1CSSC[C@@H](C(=O)O)NC(=O)[C@H]([C@@H](C)O)NC(=O)[C@H](CCCCN)NC(=O)[C@H](CO)NC(=O)[C@H](CC(C)C)NC(=O)[C@H](CCCCN)NC1=O)C(C)C)C(C)C)[C@@H](C)O` [GLLDTFKNLALNAAESAGVSVLNSLSCKLSKTC], the MIC is 2.97 µM (≈ 9.99 µg/mL) in test [1], 5.94 µM (≈ 20 µg/mL) in test [2], 2.97 µM (≈ 9.99 µg/mL) in test [3] and 5.94 µM (≈ 20 µg/mL) in test [4].
Consider `CC[C@H](C)[C@H](NC(=O)[C@@H](NC(=O)[C@H](CC(=O)O)NC(=O)[C@H](CC(C)C)NC(=O)[C@H](CC(C)C)NC(=O)CN)[C@@H](C)O)C(=O)N[C@@H](CCCCN)C(=O)N[C@@H](CC(N)=O)C(=O)N[C@@H](CCSC)C(=O)N[C@@H](C)C(=O)N[C@@H](CC(C)C)C(=O)N[C@@H](CC(N)=O)C(=O)N[C@@H](C)C(=O)N[C@@H](C)C(=O)N[C@@H](CCCCN)C(=O)N[C@@H](CO)C(=O)N[C@@H](C)C(=O)NCC(=O)N[C@H](C(=O)N[C@@H](CO)C(=O)N[C@H](C(=O)N[C@@H](CC(C)C)C(=O)N[C@@H](CC(N)=O)C(=O)N[C@H](C(=O)N[C@@H](CC(C)C)C(=O)N[C@@H](CO)C(=O)N[C@H]1CSSC[C@@H](C(=O)O)NC(=O)[C@H]([C@@H](C)O)NC(=O)[C@H](CCCCN)NC(=O)[C@H](CO)NC(=O)[C@H](CC(C)C)NC(=O)[C@H](CCCCN)NC1=O)[C@@H](C)O)C(C)C)C(C)C` [GLLDTIKNMALNAAKSAGVSVLNTLSCKLSKTC], for which the minimum inhibitory concentration (MIC) in test [1] worked out at 2.56 µM (≈ 8.6 µg/mL); in test [2] it was 2.56 µM (≈ 8.6 µg/mL); in test [3] it was 5.11 µM (≈ 17.2 µg/mL); in test [4], 2.56 µM (≈ 8.6 µg/mL).
`C[C@H](NC(=O)[C@H](CCCN=C(N)N)NC(=O)[C@H](CCCN=C(N)N)NC(=O)[C@@H]1CCCN1C(=O)CNC(=O)[C@H](CCCN=C(N)N)NC(=O)[C@H](CCCN=C(N)N)NC(=O)CN)C(=O)N[C@@H](CC(N)=O)C(=O)N[C@@H](CCC(N)=O)C(=O)N[C@@H](CC(N)=O)C(=O)NCC(=O)N[C@H](C(=O)N[C@@H](CCCN=C(N)N)C(=O)N[C@@H](CCCN=C(N)N)C(=O)N[C@@H](CCCN=C(N)N)C(=O)N[C@@H](CCCN=C(N)N)C(=O)N[C@@H](CCCN=C(N)N)C(=O)N[C@@H](CCCN=C(N)N)C(=O)N[C@H](C(N)=O)[C@@H](C)O)[C@@H](C)O` [GRRGPRRANQNGTRRRRRRT]: the MIC was ≥ 100 µM in test [5], 100 µM (≈ 248 µg/mL) in test [1], 25 µM (≈ 61.9 µg/mL) in test [6] and 25 µM (≈ 61.9 µg/mL) in test [4].
On to `CC[C@H](C)[C@H](NC(=O)CNC(=O)[C@@H](NC(=O)[C@H](CCCN=C(N)N)NC(=O)[C@@H](NC(=O)[C@@H](NC(=O)[C@H](CC(=O)O)NC(=O)[C@H](CCSC)NC(=O)CNC(=O)[C@@H](NC(=O)[C@H](CCC(=O)O)NC(=O)[C@H](CCCCN)NC(=O)CNC(=O)[C@@H](NC(=O)[C@H](CC(N)=O)NC(=O)[C@H](CCCCN)NC(=O)[C@H](C)NC(=O)CNC(=O)[C@H](CCCCN)NC(=O)[C@@H](NC(=O)[C@H](Cc1ccccc1)NC(=O)[C@H](CC(C)C)NC(=O)[C@H](CC(N)=O)NC(=O)[C@H](CCCCN)NC(=O)[C@@H](NC(=O)[C@H](C)NC(=O)[C@H](CCCCN)NC(=O)CNC(=O)[C@H](CO)NC(=O)[C@@H](NC(=O)[C@@H](N)CCCCN)[C@@H](C)CC)[C@@H](C)CC)[C@@H](C)CC)C(C)C)C(C)C)C(C)C)C(C)C)[C@@H](C)O)C(=O)N[C@@H](CC(=O)O)C(=O)N[C@H](C(=O)N[C@H](C(=O)NCC(=O)N[C@H]1CSSC[C@@H](C(=O)O)NC(=O)[C@H](CCC(=O)O)NC(=O)CNC(=O)[C@H](CCCCN)NC(=O)[C@H]([C@@H](C)CC)NC(=O)[C@H](CCCCN)NC1=O)C(C)C)C(C)C` [KISGKAIKNLFIKGAKNVGKEVGMDVVRTGIDVVGCKIKGEC], for which the MIC is 1.5 µM (≈ 6.6 µg/mL) in test [1], 1.5 µM (≈ 6.6 µg/mL) in test [2], 0.749 µM (≈ 3.3 µg/mL) in test [3] and 0.749 µM (≈ 3.3 µg/mL) in test [4].
For the compound `CC[C@H](C)[C@H](NC(=O)[C@@H](N)CCCN=C(N)N)C(=O)N[C@@H](Cc1c[nH]c2ccccc12)C(=O)N[C@@H](Cc1ccccc1)C(=O)N[C@@H](CCC(N)=O)C(=O)N[C@@H](CC(N)=O)C(=O)N[C@@H](CCCN=C(N)N)C(=O)N[C@@H](CCCN=C(N)N)C(=O)N[C@@H](CCSC)C(=O)N[C@@H](CCCN=C(N)N)C(=O)N[C@@H](Cc1c[nH]c2ccccc12)C(=O)N[C@@H](CCCN=C(N)N)C(=O)N[C@@H](CCCN=C(N)N)C(N)=O` [RIWFQNRRMRWRR], the minimal inhibitory concentration (MIC) in test [5] is ≥ 32 µM; in test [4] it was 32 µM (≈ 62.7 µg/mL).
For the compound `CC[C@H](C)[C@H](NC(=O)[C@H](CCC(N)=O)NC(=O)[C@H](CC(C)C)NC(=O)[C@H](CCC(N)=O)NC(=O)[C@@H](NC(=O)[C@H](CCCCN)NC(=O)[C@H](Cc1ccccc1)NC(=O)[C@H](Cc1c[nH]c2ccccc12)NC(=O)[C@@H](N)CCCN=C(N)N)[C@@H](C)CC)C(=O)N[C@@H](CCCN=C(N)N)C(=O)N[C@@H](CCCN=C(N)N)C(=O)N[C@@H](Cc1c[nH]c2ccccc12)C(=O)N[C@@H](CCCCN)C(=O)N[C@@H](CC(N)=O)C(=O)N[C@@H](CCCCN)C(=O)N[C@@H](CCCCN)C(N)=O` [RWFKIQLQIRRWKNKK], the MIC was 16 µM (≈ 35.6 µg/mL) in test [5] and 32 µM (≈ 71.3 µg/mL) in test [4].
In the case of `CC[C@H](C)[C@H](NC(=O)[C@@H](N)C(C)C)C(=O)N[C@H](C(=O)N[C@@H](Cc1ccccc1)C(=O)N[C@H](C(=O)N[C@@H](C)C(=O)N[C@@H](CO)C(=O)N[C@H](C(=O)N[C@@H](C)C(=O)N[C@@H](C)C(=O)N[C@@H](CCC(=O)O)C(=O)N[C@@H](CCSC)C(=O)N[C@@H](CCSC)C(=O)N[C@@H](CCC(N)=O)C(=O)N[C@@H](Cc1cnc[nH]1)C(=O)N[C@H](C(=O)N[C@@H](Cc1ccc(O)cc1)C(=O)N[C@H]1CSSC[C@@H](C(=O)O)NC(=O)[C@H](CCCCN)NC(=O)[C@H](CCCCN)NC(=O)[C@H](CO)NC(=O)[C@H](C)NC(=O)[C@H](C)NC1=O)C(C)C)C(C)C)C(C)C)C(C)C` [VIVFVASVAAEMMQHVYCAASKKC], the minimum inhibitory concentration (MIC) in test [1] is 4.79 µM (≈ 12.4 µg/mL); in test [2] it was 4.79 µM (≈ 12.4 µg/mL); in test [3], 9.59 µM (≈ 24.8 µg/mL); in test [4], 2.4 µM (≈ 6.2 µg/mL).

The MIC is the least concentration at which growth counts as inhibited. A high value points to a less susceptible organism.
